According to patent publication US20240190854A1, “PYRIMIDINE OR PYRIDINE DERIVATIVES USEFUL AS HCN2 MODULATORS” (King's College London, priority 2021, published 2024):
Structures can show the parent of a compound that is named as a salt.

Legend:
[1] = tested on: mouse neuropathic pain model (partial sciatic nerve ligation); assay: Mouse neuropathic pain model (PSNL), von Frey filament; assay type: in vivo; settings: for Mechanical analgesia (von Frey): day 5 after PSNL
Experimental: The model used was analogous to the model described in Seltzer Z, Dubner R, & Shir Y (1990), A novel behavioural model of neuropathic pain disorders produced in rats by partial sciatic nerve injury, Pain 43: 205-218). […] Sci Transl Med 9: eaam6072.
The mechanical pain threshold was measured by manual von Frey filament applied to hind paw on the operated side, using the “up-down” method.
Mechanical pain threshold was measured as in Example 133 1 day before and 8 days after partial sciatic nerve ligation (PSNL) neuropathic pain induction. The test compound was administered at a low dose of 0.2 mg/kg every two hours with a control arm of vehicle only injections.
Mechanical pain threshold was measured as in Example 133 1 day before and 5-8 days after partial sciatic nerve ligation (PSNL) neuropathic pain induction. The test compound was administered at a dose of 0.5 mg/kg twice-daily at 8 hour intervals with a control arm of vehicle only injections, and mechanical pain threshold was measured 4 hours after the first injection.

[2] = tested on: mouse neuropathic pain model (partial sciatic nerve ligation); assay: Mouse neuropathic pain model, paw pressure (Randall Sellito test); assay type: in vivo
HCN2 = HCN2 (Homo sapiens (Human), UniProt Q9UL51); assay: HCN2 current assay using the Sophion Qube; assay type: cell-based; settings: Sophion Qube protocol; read-out: SQ HCN2 IC50
HCN2, sequence (Q9UL51 whole entry): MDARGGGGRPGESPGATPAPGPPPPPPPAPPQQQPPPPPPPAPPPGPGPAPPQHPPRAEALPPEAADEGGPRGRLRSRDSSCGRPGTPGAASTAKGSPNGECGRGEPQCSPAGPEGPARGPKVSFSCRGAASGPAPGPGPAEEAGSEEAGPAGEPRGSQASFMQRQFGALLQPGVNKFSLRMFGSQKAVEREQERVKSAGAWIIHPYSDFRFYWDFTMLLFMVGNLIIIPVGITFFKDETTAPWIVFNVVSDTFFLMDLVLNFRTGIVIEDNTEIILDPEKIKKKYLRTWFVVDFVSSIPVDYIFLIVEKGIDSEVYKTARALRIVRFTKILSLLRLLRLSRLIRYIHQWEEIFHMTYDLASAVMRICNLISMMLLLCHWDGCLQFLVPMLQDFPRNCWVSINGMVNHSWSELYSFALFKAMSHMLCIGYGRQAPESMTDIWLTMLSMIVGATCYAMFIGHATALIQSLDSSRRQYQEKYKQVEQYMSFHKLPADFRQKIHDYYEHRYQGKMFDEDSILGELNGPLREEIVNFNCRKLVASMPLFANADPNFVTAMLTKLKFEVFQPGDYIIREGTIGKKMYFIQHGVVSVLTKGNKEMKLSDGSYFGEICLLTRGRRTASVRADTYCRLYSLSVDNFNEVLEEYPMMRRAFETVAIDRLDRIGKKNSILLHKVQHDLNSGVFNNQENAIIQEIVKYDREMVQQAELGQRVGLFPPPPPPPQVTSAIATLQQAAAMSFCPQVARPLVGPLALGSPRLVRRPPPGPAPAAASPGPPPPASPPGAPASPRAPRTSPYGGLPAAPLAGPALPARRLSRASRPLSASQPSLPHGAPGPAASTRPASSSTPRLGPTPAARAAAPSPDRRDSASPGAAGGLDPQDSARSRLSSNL
Experimental: (§1) Example 126B, Using the Sophion Qube
(§2) Solutions for recording HCN currents were:
(§3) This voltage protocol was applied every 20 seconds for the duration of the experiment. Both the vehicle (0.3% DMSO) and full block (3 mM CsCl) addition periods were applied for 10 experimental sweeps each.
(§4) The current amplitudes were measured by subtracting metric A from metric B (see FIG. 2) with inhibition calculated by normalising to the vehicle addition (0.3% DMSO) and full inhibition by 3 mM CsCl in the same well.
(§5) In total, compound was applied to the well for 600 seconds.

HCN4 = HCN4 (Homo sapiens (Human), UniProt Q9Y3Q4); assay: HCN4 current assay using the Sophion Qube; assay type: cell-based; settings: Sophion Qube protocol; read-out: SQ HCN4 IC50
Experimental: as §1, §2, §3, §4, §5

hERG channel = hERG channel (Homo sapiens (Human), UniProt Q12809); assay: hERG assay using Sophion Qube; assay type: cell-based; settings: Sophion Qube protocol; read-out: SQ hERG IC50
Experimental: Example 127B, Using Sophion Qube
Solutions for recording hERG currents were:
This voltage protocol was applied every 15 seconds for the duration of the experiment. Both the vehicle and 1st compound addition periods were applied for 10 sweeps. The 2nd compound addition period was applied for 20 sweeps. The compound concentration was added to the test well twice to assure complete exchange of the external buffer with the test compound. In total, compound was applied to the well for 450 seconds.

hNav1.5 = hNav1.5 (Homo sapiens (Human), UniProt Q14524)
hNav1.5, sequence (Q14524 whole entry): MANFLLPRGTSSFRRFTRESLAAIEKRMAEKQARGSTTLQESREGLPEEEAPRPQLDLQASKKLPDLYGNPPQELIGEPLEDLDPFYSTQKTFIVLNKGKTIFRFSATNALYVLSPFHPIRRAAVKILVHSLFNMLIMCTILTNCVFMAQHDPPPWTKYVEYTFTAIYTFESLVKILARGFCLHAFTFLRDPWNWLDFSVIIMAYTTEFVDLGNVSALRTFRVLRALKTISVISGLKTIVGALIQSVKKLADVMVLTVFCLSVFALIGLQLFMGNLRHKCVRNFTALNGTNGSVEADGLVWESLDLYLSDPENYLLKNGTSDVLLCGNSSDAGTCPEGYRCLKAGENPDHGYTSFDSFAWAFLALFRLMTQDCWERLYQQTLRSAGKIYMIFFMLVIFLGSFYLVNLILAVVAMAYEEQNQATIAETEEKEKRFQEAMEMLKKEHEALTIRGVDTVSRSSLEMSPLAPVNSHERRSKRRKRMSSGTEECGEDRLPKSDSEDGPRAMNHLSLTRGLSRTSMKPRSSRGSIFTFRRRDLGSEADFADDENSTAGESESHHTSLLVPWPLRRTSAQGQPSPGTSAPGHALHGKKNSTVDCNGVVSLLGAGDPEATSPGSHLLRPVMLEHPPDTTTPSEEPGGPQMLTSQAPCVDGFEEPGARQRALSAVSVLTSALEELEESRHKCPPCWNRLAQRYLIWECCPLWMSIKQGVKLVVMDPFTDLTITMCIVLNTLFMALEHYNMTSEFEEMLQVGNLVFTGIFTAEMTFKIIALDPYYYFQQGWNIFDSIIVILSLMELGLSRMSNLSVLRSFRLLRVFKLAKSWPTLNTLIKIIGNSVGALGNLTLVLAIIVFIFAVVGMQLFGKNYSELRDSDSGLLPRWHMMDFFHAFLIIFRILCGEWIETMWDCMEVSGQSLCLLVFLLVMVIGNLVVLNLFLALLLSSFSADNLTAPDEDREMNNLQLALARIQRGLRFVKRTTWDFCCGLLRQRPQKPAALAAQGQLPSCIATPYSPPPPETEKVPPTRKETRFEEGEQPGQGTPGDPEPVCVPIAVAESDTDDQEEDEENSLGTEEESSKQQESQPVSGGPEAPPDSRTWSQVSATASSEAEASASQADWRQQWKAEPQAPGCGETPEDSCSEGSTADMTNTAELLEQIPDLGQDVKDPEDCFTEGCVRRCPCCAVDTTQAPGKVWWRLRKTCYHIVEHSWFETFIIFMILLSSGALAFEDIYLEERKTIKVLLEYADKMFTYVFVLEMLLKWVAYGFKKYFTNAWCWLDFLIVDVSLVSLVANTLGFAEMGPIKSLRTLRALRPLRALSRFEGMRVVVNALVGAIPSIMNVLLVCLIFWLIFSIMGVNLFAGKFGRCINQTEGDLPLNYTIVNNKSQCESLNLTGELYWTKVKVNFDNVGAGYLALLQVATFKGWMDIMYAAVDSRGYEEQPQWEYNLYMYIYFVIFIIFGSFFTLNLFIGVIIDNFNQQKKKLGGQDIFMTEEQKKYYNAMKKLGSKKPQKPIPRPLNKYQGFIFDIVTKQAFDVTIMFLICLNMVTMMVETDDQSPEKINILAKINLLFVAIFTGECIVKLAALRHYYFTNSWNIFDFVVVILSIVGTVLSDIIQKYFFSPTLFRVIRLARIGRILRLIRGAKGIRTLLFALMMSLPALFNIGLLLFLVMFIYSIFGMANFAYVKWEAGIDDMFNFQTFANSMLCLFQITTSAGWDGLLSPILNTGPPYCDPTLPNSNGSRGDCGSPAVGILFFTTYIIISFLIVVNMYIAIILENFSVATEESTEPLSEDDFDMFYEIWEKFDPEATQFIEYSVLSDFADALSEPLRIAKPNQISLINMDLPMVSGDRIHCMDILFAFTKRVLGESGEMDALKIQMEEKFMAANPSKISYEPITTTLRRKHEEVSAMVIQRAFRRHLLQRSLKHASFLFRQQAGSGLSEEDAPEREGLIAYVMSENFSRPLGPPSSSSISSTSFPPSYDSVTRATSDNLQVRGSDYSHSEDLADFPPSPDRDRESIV
Experimental: The cells were held at −100 mV followed by a depolarising step to −10 mV for 100 milliseconds before stepping back to −100 mV, this represents 1 experimental sweep.
For tonic block (0.1 Hz), the peak currents evoked by the step to −10 mV were measured for the analysis of the percentage inhibition by test compounds. For use-dependent block (4 Hz), the peak current evoked at the 20th depolarising step to −10 mV was measured for the analysis of the percentage inhibition by test compounds. Peak currents were first normalised to the vehicle addition (0.3% DMSO) in the same well.

MDR1 (P-glycoprotein) = MDR1 (P-glycoprotein) (Homo sapiens (Human), UniProt P08183); assay: in vitro; settings: dog, MDCK-MDR1, pH 7.4
MDR1 (P-glycoprotein), sequence (P08183 whole entry): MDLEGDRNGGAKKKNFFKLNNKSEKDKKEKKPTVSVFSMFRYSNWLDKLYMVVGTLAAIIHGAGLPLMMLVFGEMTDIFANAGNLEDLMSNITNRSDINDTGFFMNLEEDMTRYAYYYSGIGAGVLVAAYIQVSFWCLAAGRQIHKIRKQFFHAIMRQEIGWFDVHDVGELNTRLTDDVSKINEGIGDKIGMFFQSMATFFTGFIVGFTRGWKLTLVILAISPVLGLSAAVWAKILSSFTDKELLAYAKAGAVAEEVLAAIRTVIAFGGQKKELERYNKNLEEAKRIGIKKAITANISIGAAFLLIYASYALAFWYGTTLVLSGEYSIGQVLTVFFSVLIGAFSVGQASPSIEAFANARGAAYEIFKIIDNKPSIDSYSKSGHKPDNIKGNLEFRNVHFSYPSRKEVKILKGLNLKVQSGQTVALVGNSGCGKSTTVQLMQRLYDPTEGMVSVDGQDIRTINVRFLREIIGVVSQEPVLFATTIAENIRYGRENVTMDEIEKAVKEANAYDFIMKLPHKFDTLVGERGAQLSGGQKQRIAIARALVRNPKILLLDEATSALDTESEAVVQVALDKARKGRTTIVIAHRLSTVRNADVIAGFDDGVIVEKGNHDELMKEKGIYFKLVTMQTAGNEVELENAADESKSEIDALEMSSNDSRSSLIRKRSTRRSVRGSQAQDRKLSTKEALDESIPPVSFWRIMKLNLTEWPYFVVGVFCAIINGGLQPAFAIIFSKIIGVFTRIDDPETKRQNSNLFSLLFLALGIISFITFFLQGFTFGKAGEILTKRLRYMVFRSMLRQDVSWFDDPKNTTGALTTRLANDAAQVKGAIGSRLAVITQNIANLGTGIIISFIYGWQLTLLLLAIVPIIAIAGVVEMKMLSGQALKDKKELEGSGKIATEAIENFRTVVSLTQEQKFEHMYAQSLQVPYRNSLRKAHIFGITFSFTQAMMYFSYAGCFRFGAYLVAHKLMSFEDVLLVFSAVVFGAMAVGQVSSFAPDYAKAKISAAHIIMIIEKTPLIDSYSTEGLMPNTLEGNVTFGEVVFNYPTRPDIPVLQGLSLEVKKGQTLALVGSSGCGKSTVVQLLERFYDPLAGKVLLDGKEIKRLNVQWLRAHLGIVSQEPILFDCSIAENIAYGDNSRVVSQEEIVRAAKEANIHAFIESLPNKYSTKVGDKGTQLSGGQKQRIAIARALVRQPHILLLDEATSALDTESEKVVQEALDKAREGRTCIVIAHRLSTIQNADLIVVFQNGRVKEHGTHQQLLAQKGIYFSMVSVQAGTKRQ
Experimental: Test compounds were added (10 μM, 0.1% DMSO final, n=2) to donor compartments of the Transwell plate assembly in assay buffer (Hanks balanced salt solution supplemented with 25 mM HEPES, adjusted to pH 7.4) for both apical to basolateral (A>B) and basolateral to apical (B>A) measurements. A parallel series of incubations were performed in the presence of the transporter inhibitor elacridar (5 μM) which was added to both compartments in the transwell plate. Incubations were performed at 37° C., with samples removed from both donor and acceptor chambers at T=0 and 1 hour for recovery assessment and compound analysed by mass spectrometry (LC-MS/MS), including an analytical internal standard.
Apparent permeability (Papp) values were determined from the relationship:
Where V is the volume of each Transwell compartment (apical 125 μL, basolateral 600 μL), and concentrations are the relative MS responses for compound (normalized to internal standard) in the donor chamber before incubation and acceptor chamber at the end of the incubation.
Area=area of cells exposed for drug transfer (0.33 cm2).
Efflux ratios (Papp B>A/Papp A>B) were calculated for each compound from the mean Papp values in each direction. […] The efflux ratios were also calculated in the same way from the runs carried out in the presence of the inhibitor. The net flux is the ratio of the efflux in the absence of inhibitor to that in the presence of inhibitor.
Lucifer Yellow (LY) was added to the apical buffer in all wells to assess viability of the cell layer.
Compound recovery from the wells was determined from MS responses (normalized to internal standard) in donor and acceptor chambers at the end of incubation compared to response in the donor chamber pre-incubation.

HCN1 = HCN1 (Homo sapiens (Human), UniProt O60741); assay: HCN1 current assay using the Sophion Qube; assay type: cell-based; settings: Sophion Qube protocol; read-out: SQ HCN1 IC50
HCN1, sequence (O60741 whole entry, species assumed): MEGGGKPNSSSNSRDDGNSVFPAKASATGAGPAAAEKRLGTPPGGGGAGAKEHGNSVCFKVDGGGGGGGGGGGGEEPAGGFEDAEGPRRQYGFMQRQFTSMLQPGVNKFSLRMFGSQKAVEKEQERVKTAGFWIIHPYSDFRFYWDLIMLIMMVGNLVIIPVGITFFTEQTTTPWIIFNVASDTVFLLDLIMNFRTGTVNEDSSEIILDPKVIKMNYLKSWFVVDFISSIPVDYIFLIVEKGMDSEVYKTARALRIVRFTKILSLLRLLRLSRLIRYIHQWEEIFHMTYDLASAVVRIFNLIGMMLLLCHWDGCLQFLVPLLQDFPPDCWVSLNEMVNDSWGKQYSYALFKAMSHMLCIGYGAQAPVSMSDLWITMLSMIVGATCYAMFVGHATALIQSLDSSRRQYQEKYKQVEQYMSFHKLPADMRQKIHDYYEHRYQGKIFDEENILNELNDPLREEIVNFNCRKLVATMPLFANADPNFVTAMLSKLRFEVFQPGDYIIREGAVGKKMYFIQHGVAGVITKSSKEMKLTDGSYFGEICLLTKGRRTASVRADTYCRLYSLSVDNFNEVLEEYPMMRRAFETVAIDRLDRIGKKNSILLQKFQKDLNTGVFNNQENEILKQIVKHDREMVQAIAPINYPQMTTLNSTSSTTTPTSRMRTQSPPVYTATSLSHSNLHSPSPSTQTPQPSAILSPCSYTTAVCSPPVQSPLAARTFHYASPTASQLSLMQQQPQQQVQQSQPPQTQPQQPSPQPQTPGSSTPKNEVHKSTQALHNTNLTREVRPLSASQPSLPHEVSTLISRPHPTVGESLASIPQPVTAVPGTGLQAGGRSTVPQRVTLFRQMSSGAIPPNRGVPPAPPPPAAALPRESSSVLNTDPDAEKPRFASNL
Experimental: as §1, §2, §3, §4, §5

Row | IC50 (HCN2) [µM] | SMILES | IC50 (HCN4) [µM] | IC50 (hERG channel) [µM] | IC50 (hNav1.5) [µM] | efflux ratio at 1 h, 10 μM (MDR1 (P-glycoprotein)) | IC50 (HCN1) [µM] | further results
1 | – | CS(=O)(=O)c1ccc(F)c(C[C@H](N)c2ccccc2-c2noc3ccccc23)n1 [Example 5, (S)-1-[2-(Benzo[d]isoxazol-3-yl)phenyl]-2-[3-fluoro-6-(methylsulfonyl)pyridine-2-yl]ethan-1-amine hydrochloride] | – | – | – | – | – | Mechanical analgesia (von Frey) ([1]; 0.1 mg/kg i.p.): partial analgesia; Mechanical analgesia (von Frey), first dose ([1]; 0.2 mg/kg every two hours, first dose): only partial analgesia; Mechanical analgesia (von Frey), subsequent doses ([1]; 0.2 mg/kg every two hours, subsequent doses): increase in analgesia towards full analgesia; Mechanical analgesia (von Frey) ([1]; 0.5 mg/kg i.p.): full analgesia; Mechanical analgesia (von Frey), successive doses over 4 days ([1]; 0.5 mg/kg twice-daily at 8 hour intervals, 4 days): full and sustained analgesia; Mechanical analgesia (von Frey), 4 hours after first injection ([1]; 0.5 mg/kg twice-daily at 8 hour intervals, first injection): little analgesia; ED50 ([1]; Mus musculus, ip, maximal analgesia, n=3-4 mice, read-out: Analgesic ED50): 0.17 mg/kg; Analgesia, paw pressure (Randall Sellito) ([2]; 0.1 mg/kg i.p.): partial analgesia; Analgesia, paw pressure (Randall Sellito) ([2]; 0.5 mg/kg i.p.): full analgesia
2 | 1.2 | N[C@@H](Cc1nc(Br)ccc1F)c1ccccc1-c1noc2cc(F)ccc12 [Example 15, (S)-2-(6-Bromo-3-fluoropyridine-2-yl)-1-[2-(6-fluorobenzo[d]isoxazol-3-yl)phenyl]-ethan-1-amine hydrochloride] | – | – | – | – | 5.1 | –
3 | 2 | N[C@@H](Cc1nc(Br)ccc1F)c1ccccc1-c1noc2cc(Br)ccc12 [Example 16, (S)-2-(6-Bromo-3-fluoropyridine-2-yl)-1-[2-(6-bromobenzo[d]isoxazol-3-yl)phenyl]-ethan-1-amine] | – | – | – | – | 3 | –
4 | 5.8 | N#Cc1ccc2c(-c3ccccc3[C@@H](N)Cc3nc(Br)ccc3F)noc2c1 [Example 17, (S)-2-(6-Bromo-3-fluoropyridine-2-yl)-1-[2-(6-cyanobenzo[d]isoxazol-3-yl)phenyl]-ethan-1-amine hydrochloride] | – | 3.1 | – | – | – | –
5 | 2.5 | CS(=O)(=O)c1ccc(F)c(C[C@H](N)c2ccccc2-c2noc3cc(Br)ccc23)n1 [Example 21, (S)-1-[2-(6-Bromobenzo[d]isoxazol-3-yl)phenyl]-2-(3-Fluoro-6-methylsulfonylpyridin-yl)ethan-1-amine hydrochloride] | – | – | – | – | 5.3 | –
6 | – | CS(=O)(=O)c1ccc(F)c(C[C@H](N)c2ccccc2-c2noc3ccc(F)cc23)n1 [Example 22, (S)-1-[2-(5-Fluorobenzo[d]isoxazol-3-yl)phenyl]-2-(3-fluoro-6-methylsulfonylpyridin-2-yl)ethan-1-amine hydrochloride] | 20.8 | 5.7 | 24.1 | – | 27.4 | –
7 | 1.7 | Cc1ccc(S(C)(=O)=O)nc1C[C@H](N)c1ccccc1-c1noc2cc(Cl)ccc12 [Example 23, (S)-1-[2-(6-Chlorobenzo[d]isoxazol-3-yl)phenyl]-2-(3-methyl-6-methylsulfonylpyridin-2-yl)ethan-1-amine hydrochloride] | – | 1.2 | 13.9 | – | – | –
8 | > 30 | CC(C)S(=O)(=O)c1ccc(F)c(C[C@H](N)c2ccccc2-c2noc3cc(Cl)ccc23)n1 [Example 25, (S)-1-[2-(6-Chlorobenzo[d]isoxazol-3-yl)phenyl]-2-(3-fluoro-6-isopropyisulfonylpyridin-2-yl)ethan-1-amine hydrochloride] | – | – | – | – | – | –
9 | 1.4 | N#Cc1ccc(F)c(C[C@H](N)c2ccccc2-c2noc3cc(Br)ccc23)n1 [Example 27, (S)-2-{2-Amino-2-[2-(6-bromobenzo[d]isoxazol-3-yl)phenyl]ethyl}-3-fluoropyridine-6-carbonitrile] | – | – | – | – | – | –
10 | 1 | Cc1ccc(C#N)nc1C[C@H](N)c1ccccc1-c1noc2cc(Br)ccc12 [Example 28, (S)-2-{2-Amino-2-[2-(6-bromobenzo[d]isoxazol-3-yl)phenyl]ethyl}-3-methylpyridine-6-carbonitrile] | – | – | – | – | – | –

Row | SMILES | IC50 (HCN2) [µM] | IC50 (HCN4) [µM] | IC50 (hERG channel) [µM] | IC50 (hNav1.5) [µM] | efflux ratio at 1 h, 10 μM (MDR1 (P-glycoprotein)) | IC50 (HCN1) [µM] | further results
11 | Cc1ccc2c(-c3ccccc3[C@@H](N)Cc3nc(S(C)(=O)=O)ccc3F)noc2c1 [Example 11, (S)-2-(3-Fluoro-6-methylsulfonylpyridine-2-yl)-1-[2-(6-methylbenzo[d]isoxazol-3-yl)phenyl]ethan-1-amine hydrochloride] | 3.2 | 30 | 4.7 | 21.4 | 5.2 | – | –
12 | CS(=O)(=O)c1ccc(F)c(C[C@H](N)c2ccccc2-c2noc3cc(Cl)ccc23)n1 [Example 13, (S)-1-[2-(6-Chlorobenzo[d]isoxazol-3-yl)phenyl]-2-(3-fluoro-6-methylsulfonylpyridine-2-yl)ethan-1-amine hydrochloride] | 2.6 | > 30 | 1.4 | 15.1 | 6.2 | 3.2 | –
13 | Cc1ccc2c(-c3ccccc3[C@@H](N)Cc3nc(S(C)(=O)=O)ccc3C)noc2c1 [Example 19, (S)-2-(3-Methyl-6-methylsulfonylpyridin-2-yl)-1-[2-(6-methylbenzo[d]isoxazol-3-yl)phenyl]ethan-1-amine hydrochloride] | 1.4 | 13.1 | 1.3 | 11.5 | 12.4 | 2.9 | –
14 | CS(=O)(=O)c1ccc(F)c(C[C@H](N)c2ccccc2-c2noc3cc(F)ccc23)n1 [Example 20, (S)-2-(3-Fluoro-6-methylsulfonylpyridin-2-yl)-1-[2-(6-fluorobenzo[d]isoxazol-3-yl)phenyl]ethan-1-amine hydrochloride] | 3.1 | > 30 | 2.9 | 28.1 | 6.2 | 16.9 | –
15 | Cc1ccc(S(C)(=O)=O)nc1C[C@H](N)c1ccccc1-c1noc2cc(F)ccc12 [Example 24, (S)-1-[2-(6-Fluorobenzo[d]isoxazol-3-yl)phenyl]-2-(3-methyl-6-methylsulfonylpyridin-2-yl)ethan-1-amine hydrochloride] | 1.3 | 7.8 | 3.4 | 22.4 | 10.4 | 4.2 | –
16 | CS(=O)(=O)c1ccc(F)c(C[C@H](N)c2ccccc2-c2noc3c(F)cccc23)n1 [Example 26, (S)-1-[2-(7-Fluorobenzo[d]isoxazol-3-yl)phenyl]-2-(3-fluoro-6-methylsulfonylpyridin-2-yl)ethan-1-amine hydrochloride] | 1.8 | > 30 | 15.1 | 19.2 | 4.2 | 25.7 | –
